Measured values as given in paper PMC7692337, “Masked Phenolic-Selenium Conjugates: Potent and Selective Antiproliferative Agents Overcoming P-gp Resistance” (Pharmaceuticals, 2020).
“Also recorded” adds a separate entry of the source. Read-outs that look alike come from different tables or passages of the source.

Experiments:
[1] = system: A549 (non-small cell lung); test: Antiproliferative activity, NCI protocol; format: cell-based, human
Experimental: (§1) Organochalcogen derivatives prepared herein were evaluated in vitro as potential antiproliferative agents, using a panel of six human tumour cell lines: A549 (non-small cell lung), HBL-100 (breast), HeLa (cervix), SW1573 (non-small cell lung), as drug sensitive lines, T-47D (breast) and WiDr (colon) as drug resistant lines. In addition to precursors 2, 6, 7, 13, 14, 17, 19, ebselen and cisplatin (CDDP) were used as reference drugs. […] In both cases, the NCI protocol, with minor modifications, was followed; selected data, including the selectivity index (S.I.) can be found in Table 3 and full data in Supporting Information (Table S1).
(§2) The in vitro antiproliferative activity was assayed using minor modifications of the protocol of the National Cancer Institute (NCI) of the United States against the six human solid tumor cell and the non-tumor cell lines tested.

[2] = system: HBL-100 (breast); test: Antiproliferative activity, NCI protocol; format: cell-based, human
Experimental: as §1, §2

[3] = system: HeLa (cervix); test: Antiproliferative activity, NCI protocol; format: cell-based, human
Experimental: as §1, §2

[4] = system: SW1573 (non-small cell lung); test: Antiproliferative activity, NCI protocol; format: cell-based, human
Experimental: as §1, §2

[5] = system: T-47D (breast); test: Antiproliferative activity, NCI protocol; format: cell-based, human; conditions: read-out: GI50 T-47D (Breast)
Experimental: as §1, §2

[6] = system: WiDr (colon); test: Antiproliferative activity, NCI protocol; format: cell-based, human; conditions: read-out: GI50 WiDr (Colon)
Experimental: as §1, §2

[7] = Free radical scavenging (DPPH method); conditions: 30 min incubation, absorbance at 515 nm, read-out: EC50 antiradical activity (DPPH)
Experimental: (§3) In vitro antioxidant properties of key unprotected phenolic derivatives were analyzed using two different methodologies: free radical scavenging capacity, using the DPPH method (2,2-diphenyl-1-picrylhydrazyl), a HAT (hydrogen atom transfer) procedure, widely-used for both natural and synthetic derivatives, and also the capacity for scavenging H2O2, one of the most common ROS in degenerative diseases, including cancer.
DPPH is a commercially-available stable free radical commonly used for in vitro testing of radical scavenging properties of antioxidants.
Reported methodology was used with minor modifications. To a 60 µM methanolic DPPH solution (1.17 mL), the antioxidant solution (5–7 different solutions, 30 µL) or solvent (control, 30 µL) were added. After 30 min. of incubation in the dark, absorbance was measured at 515 nm, and EC50 values were calculated.

[8] = H2O2 scavenging (phenol red / horseradish peroxidase); conditions: At 50 µM
Experimental: as §3
Herein, following Bahorun’s methodology, in vitro levels of H2O2 were measured in an indirect fashion, by registering the H2O2-mediated oxidation of phenol red in the presence of horseradish peroxidase, to give a chromophore with a maximum absorption at 610 nm. Accordingly, in the presence of an antioxidant agent, there is an inverse correlation between the observed absorbance, and the scavenging properties. Table 2 depicts the H2O2-scavenging properties of compounds prepared herein, and tested at a final 50 µM concentration.
Reported methodology was used with minor modifications.

[9] = system: SW1573; test: P-glycoprotein assay, wild type line; format: cell-based; conditions: Homo sapiens, 48 h exposure
Experimental: (§4) This assay allows prediction of whether a certain chemotherapeutic agent could develop chemoresistance when behaving as a P-gp substrate, one of the most common efllux-pumps used for the extrusion of cell xenobiotics. For that purpose, a cell line-based assay was used, in particular the lung cancer cell line in its wild type (SW1573), and its variant overexpressing P-gp (Sw1573/Pgp). Moreover, compounds were tested in the presence and in the absence of verapamil, which is known to inhibit P-gp. Chemotherapeutic agents paclitaxel (PTX) and vinblastine (VB) are used herein as reference compounds. In this assay, the resistance factor (Rf) for a certain compound is defined as the ratio of GI50 in the cell line overexpressing P-gp and the wild one (Table 4), high values of Rf denoting that the compound behaves as a P-gp substrate, and thus, chemoresistance through this mechanism will probably take place.

[10] = P-glycoprotein assay, line overexpressing P-gp; format: cell-based, human; conditions: human, 48 h exposure
Experimental: as §4

[11] = system: SW1573/Pgp; test: P-glycoprotein assay, line overexpressing P-gp; format: cell-based, human; conditions: ratio between GI50 values in SW1573/PGP and SW1573 cells; for Rf w Verapamil: with verapamil; for Rf w/o Verapamil: without verapamil
Experimental: as §4

[12] = system: six human tumour cell lines (A549, HBL-100, HeLa, SW1573, T-47D, WiDr); test: Antiproliferative activity, panel of six human tumour cell lines; format: cell-based; conditions: summary over the tested tumour cell lines, highest tested concentration 100 µM
Experimental: as §1, §2

[13] = Homo sapiens, A549; read-out: GI50 A549 (Lung)
[14] = Homo sapiens, HBL-100; read-out: GI50 HBL-100 (Breast)
[15] = Homo sapiens, HeLa; read-out: GI50 HeLa (Cervix)
[16] = Homo sapiens, SW1573, Table S1, read-out: GI50 SW1573 (Lung)
[17] = Homo sapiens, T47D, drug resistant line
[18] = Homo sapiens, WiDr, drug resistant line
[19] = with verapamil, read-out: GI50 SW153 w Verapamil
[20] = without verapamil, read-out: GI50 SW1573 w/o Verapamil
[21] = with verapamil (concentration not stated), with verapamil, read-out: GI50 SW1573/PGP w Verapamil
[22] = without verapamil, read-out: GI50 SW1573/PGP w/o Verapamil
[23] = with verapamil, reference drugs, read-out: GI50 SW153 w Verapamil
[24] = without verapamil, reference drugs, read-out: GI50 SW1573 w/o Verapamil
[25] = with verapamil (concentration not stated), with verapamil, reference drugs, read-out: GI50 SW1573/PGP w Verapamil
[26] = Homo sapiens, A549, read-out: GI50 A549 (Lung)
[27] = Homo sapiens, HBL-100, read-out: GI50 HBL-100 (Breast)
[28] = Homo sapiens, HeLa, read-out: GI50 HeLa (Cervix)
[29] = Homo sapiens, SW1573, read-out: GI50 SW1573 (Lung)

| EC50 [7] [µM] | Compound | GI50 [1, 13] [µM] | GI50 [2, 14] [µM] | GI50 [3, 15] [µM] | GI50 [4, 16] [µM] | GI50 [5, 17] [µM] | GI50 [6, 18] [µM] | also measured |
| --- | --- | --- | --- | --- | --- | --- | --- | --- |
|  | O=C(O)CCCSSCCCC(=O)O [Compound 2, 4,4′-Dithiobisbuthyric acid] | > 100 | > 100 | > 100 | > 100 | > 100 | > 100 |  |
|  | CC(=O)O[C@H]1C(=O)[C@@]2(C)[C@H]([C@H](OC(=O)c3ccccc3)[C@]3(O)C[C@H](OC(=O)[C@H](O)[C@@H](NC(=O)c4ccccc4)c4ccccc4)C(C)=C1C3(C)C)[C@]1(OC(C)=O)CO[C@@H]1C[C@@H]2O [PTX, paclitaxel, reference compound] |  |  |  |  |  |  | GI50 [9, 23]: 1.6 ± 0.2 nM; GI50 [9, 24]: 1.5 ± 0.5 nM; GI50 at 48 h [10, 25]: 0.0042 ± 0.0009 µM; Rf w Verapamil [11]: 2.6; Rf w/o Verapamil [11]: 128 |
| 13.4 ± 0.6 | OCCc1ccc(O)c(O)c1 [HT, hydroxytyrosol, reference compound] |  |  |  |  |  |  |  |
|  | CC[C@]1(O)C[C@@H]2CN(CCc3c([nH]c4ccccc34)[C@@](C(=O)OC)(c3cc4c(cc3OC)N(C)[C@H]3[C@@](O)(C(=O)OC)[C@H](OC(C)=O)[C@]5(CC)C=CCN6CC[C@]43[C@@H]65)C2)C1 [VB, vinblastine, reference compound] |  |  |  |  |  |  | GI50 [9, 23]: 0.8 ± 0.2 nM; GI50 [9, 24]: 0.9 ± 0.3 nM; GI50 at 48 h [10, 25]: 0.001 ± 0.0005 µM; Rf w Verapamil [11]: 1.3; Rf w/o Verapamil [11]: 2388 |
|  | O=C(O)CCSSCCC(=O)O [Compound 7, 3,3′-Dithiobispropionic acid] | > 100 | > 100 | > 100 | > 100 | > 100 | > 100 |  |
|  | O=C(O)CC[Se][Se]CCC(=O)O [Compound 13, 3,3′-Diselenobispropanoic acid] | 4.1 ± 0.1 | 94 ± 8 | 18 ± 1 | > 100 | 20 ± 8 | 5.6 ± 0.6 |  |
|  | c1ccc(C[Se]CCc2ccc3c(c2)OCO3)cc1 [Compound 38, 1-Benzylseleno-2-(3’, 4’-methylenedioxyphenyl)ethane] | 19 ± 2 | 14 ± 3 | 5.2 ± 1 | 27 ± 5 | 4.7 ± 1.2 | 14 ± 2 | GI50 [9, 19]: 15000 ± 3000 nM; GI50 [9, 20]: 27000 ± 2000 nM; GI50 at 48 h [10, 21]: 25 ± 2 µM; GI50 at 48 h [10, 22]: 29 ± 0.2 µM; Rf w Verapamil [11]: 1.6; Rf w/o Verapamil [11]: 1.1 |
|  | N#C[Se]CCC(=O)O [Compound 19, 3-Selenocyanatopropanoic acid] |  |  |  |  |  |  | GI50 [1, 26]: 18 ± 6 µM; GI50 [2, 27]: 93 ± 9 µM; GI50 [3, 28]: 32 ± 10 µM; GI50 [4, 29]: > 100 µM; GI50 ([5]; Homo sapiens, T47D): 36 ± 1 µM; GI50 ([6]; Homo sapiens, WiDr): 28 ± 4 µM |
|  | c1cc2c(cc1CCC[Se][Se]CCCc1ccc3c(c1)OCO3)OCO2 [Compound 41, Bis[3-(3’, 4’-methylenedioxyphenyl)propyl]diselenide] |  |  |  |  |  |  | GI50 [1, 26]: 32 ± 8 µM; GI50 [2, 27]: 93 ± 10 µM; GI50 [3, 28]: 31 ± 8 µM; GI50 [4, 29]: 37 ± 15 µM; GI50 ([5]; Homo sapiens, T47D): 29 ± 5 µM; GI50 ([6]; Homo sapiens, WiDr): 29 ± 8 µM; GI50 over the tumour cell lines (range, bound or words) [12]: only a moderate antiproliferative agent |
|  | O=C(O)CCC[Se][Se]CCCC(=O)O [Compound 14, 4,4′-Diselenobisbutyric acid] |  |  |  |  |  |  | GI50 [1, 26]: 46 ± 14 µM; GI50 [2, 27]: > 100 µM; GI50 [3, 28]: 44 ± 13 µM; GI50 [4, 29]: > 100 µM; GI50 ([5]; Homo sapiens, T47D): 50 ± 14 µM; GI50 ([6]; Homo sapiens, WiDr): 54 ± 6 µM |
| 4.2 ± 0.1 | O=C(CCSSCCC(=O)NCCc1ccc(O)c(O)c1)NCCc1ccc(O)c(O)c1 [Compound 9, 3,3′-Dithiobis{N-[2′’-(3′’’,4′’’-dihydroxyphenyl)ethyl]propanamide}] | 32 ± 1 | 31 ± 7 | 28 ± 2 | 42 ± 6 | 45 ± 19 | > 100 | GI50 ([12]; Homo sapiens, read-out: GI50 over the tumour cell lines (range, bound or words)): < 45 µM |
|  | O=c1c2ccccc2[se]n1-c1ccccc1 [Ebselen, 2-phenyl-1,2-benzoselenazol-3-one, reference compound] | 25 ± 9 | 13 ± 3 | 26 ± 8 | 28 ± 4 | 90 ± 14 | > 100 |  |
|  | 3-phenylselenopropanoic acid [Compound 17] |  |  |  |  |  |  | GI50 ([1]; read-out: GI50 A549 (Lung)): > 100 µM; GI50 ([2]; read-out: GI50 HBL-100 (Breast)): > 100 µM; GI50 ([3]; read-out: GI50 HeLa (Cervix)): > 100 µM; GI50 ([4]; Table S1, read-out: GI50 SW1573 (Lung)): > 100 µM; GI50 ([5]; drug resistant line): > 100 µM; GI50 ([6]; drug resistant line): > 100 µM |
|  | O=C(O)CSSCC(=O)O [Compound 6, Dithiodiacetic acid] | > 100 | > 100 | > 100 | > 100 | > 100 | > 100 |  |
| > 175 | O=C1CCCSSCCCC(=O)Oc2cc(CCO)ccc2O1 [Compound 4, [4”-(2”‘-Hydroxyethyl)-1”,2”-phenylene]-4,4’-dithiobisbutyrate] | > 100 | > 100 | > 100 | > 100 | > 100 | > 100 | % Scavenging of H2O2 [8]: complete loss of ROS scavenging properties; also recorded: --- ^2 |
| 11.4 ± 1.2 | NCCc1ccc(O)c(O)c1 [Dopamine, dopamine, reference compound] |  |  |  |  |  |  | % Scavenging of H2O2 [8]: 46.1 ± 4.6% |

| Compound | EC50 [7] [µM] | GI50 [1, 13] [µM] | GI50 [2, 14] [µM] | GI50 [3, 15] [µM] | GI50 [4, 16] [µM] | GI50 [5, 17] [µM] | GI50 [6, 18] [µM] | also measured |
| --- | --- | --- | --- | --- | --- | --- | --- | --- |
| O=C(CC[Se][Se]CCC(=O)NCCc1ccc(O)c(O)c1)NCCc1ccc(O)c(O)c1 [Compound 15, 3,3′-Diselenobis{N-[2′’-(3′’’,4′’’-dihydroxyphenyl)ethyl]propanamide}] | 7.8 ± 0.2 | 5.4 ± 1.1 | 29 ± 6 | 3.6 ± 1.1 | 5.9 ± 1.3 | 39 ± 5 | 31 ± 7 | % Scavenging of H2O2 [8]: 40.0 ± 3.1%; GI50 [9, 19]: 5000 ± 700 nM; GI50 [9, 20]: 3300 ± 400 nM; GI50 at 48 h [10, 21]: 5.3 ± 0.3 µM; GI50 at 48 h [10, 22]: 5 ± 0.1 µM; Rf w Verapamil [11]: 1.1; Rf w/o Verapamil [11]: 1.5 |
| O=c1c2ccccc2[se]n1CCc1ccc(O)c(O)c1 [Compound 26, N-[2′-(3′’,4′’-Dihydroxyphenyl)ethyl]-1,2-benzisoselenazole-3(2H)-one] | 7.8 ± 0.2 |  |  |  |  |  |  | GI50 [1, 26]: 21 ± 7 µM; GI50 [2, 27]: 21 ± 4 µM; GI50 [3, 28]: 21 ± 6 µM; GI50 [4, 29]: 21 ± 12 µM; GI50 ([5]; Homo sapiens, T47D): 28 ± 6 µM; GI50 ([6]; Homo sapiens, WiDr): 30 ± 3 µM; GI50 over the tumour cell lines (range, bound or words) [12]: moderate antiproliferative properties |
